Data on 63 molecules can be found in patent US12583858B2 (Genentech, Inc., priority 2015, dated 2026).

Molecules are shown by their SMILES.

In general, EC50 refers to the concentration that produces a half-maximal response.

In this experiment the target is T1, TDO2 (Homo sapiens, UniProt P48775).
T1 construct: decreased levels of NFK in SW48 cells (high TDO expressing cells)
T1 sequence (P48775 whole entry): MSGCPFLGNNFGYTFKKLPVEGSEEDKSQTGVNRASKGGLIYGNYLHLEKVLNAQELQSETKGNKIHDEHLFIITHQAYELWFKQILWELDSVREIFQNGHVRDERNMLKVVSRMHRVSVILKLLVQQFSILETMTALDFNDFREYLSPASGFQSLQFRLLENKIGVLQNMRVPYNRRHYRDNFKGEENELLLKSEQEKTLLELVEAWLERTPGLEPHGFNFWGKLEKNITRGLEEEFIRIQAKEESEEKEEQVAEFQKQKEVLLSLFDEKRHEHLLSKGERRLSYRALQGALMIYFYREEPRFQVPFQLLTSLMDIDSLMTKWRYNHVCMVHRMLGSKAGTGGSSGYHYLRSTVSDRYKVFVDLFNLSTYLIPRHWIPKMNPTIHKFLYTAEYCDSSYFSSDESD
The experiment can be described thus: TDO2 cell assay (NFK GreenScreen, SW48 cells). The class given is cell-based. Particulars: SW48 cells (high TDO expressing), 200 uM tryptophan, 24 hours; Table 3; read-out: TDO2 Cell Fluor EC50.
For the molecule `O[C@@H](C1CCCCC1)[C@@H]1c2ccccc2-c2cncn21` (single isomer, unassigned) [Example 148c], the EC50 came out at 0.88 µM.

For the molecule `O[C@@H](C1CCCCC1)[C@@H]1c2ccccc2-c2cncn21` (single isomer, unassigned) [Example 148d], the EC50 is over 25 µM.

Take `NC(=O)c1nc2c(s1)CCC(C1c3ccccc3-c3cncn31)C2O` (single isomer, unassigned) [Example 149a]: the EC50 is 0.19 µM.

`NC(=O)c1nc2c(s1)CCC(C1c3ccccc3-c3cncn31)C2O` (single isomer, unassigned) [Example 149c]: the EC50 turned out to be 0.15 µM.

Regarding `NC(=O)c1nc2c(s1)CCC(C1c3ccccc3-c3cncn31)C2O` (single isomer, unassigned) [Example 149d], the EC50 stood at 9.6 µM.

With `NC(=O)c1nc2c(s1)CCC(C1c3ccccc3-c3cncn31)C2O` (single isomer, unassigned) [Example 149e], the EC50 stood at 1.4 µM.

`NC(=O)c1nc2c(s1)CCC(C1c3ccccc3-c3cncn31)C2O` (single isomer, unassigned) [Example 149f]: the EC50 is over 25 µM.

For the molecule `NC(=O)c1nc2c(s1)CCC(C1c3ccccc3-c3cncn31)C2O` (single isomer, unassigned) [Example 149g], the EC50 was found to be 24.2 µM.

As for `NC(=O)c1nc2c(s1)CCC(C1c3ccccc3-c3cncn31)C2O` (single isomer, unassigned) [Example 149h], the EC50 was 24 µM.

Consider `OC1CC(CF)(CF)C1C1c2ccccc2-c2cncn21` (single isomer, unassigned) [Example 150b], for which the EC50 came out at 2.1 µM.

In the case of `OC1CC(CF)(CF)C1C1c2ccccc2-c2cncn21` (single isomer, unassigned) [Example 150d], the EC50 amounted to 18 µM.

Regarding `OC1CC(CF)(CF)C1C1c2ccccc2-c2cncn21` (single isomer, unassigned) [Example 150e], the EC50 was determined as 0.053 µM.

For the molecule `OC1CC(CF)(CF)C1C1c2ccccc2-c2cncn21` (single isomer, unassigned) [Example 150f], the EC50 was found to be 11 µM.

On to `O[C@@H]1c2c(F)cnn2CC[C@@H]1[C@@H]1c2ccccc2-c2cncn21` (single isomer, unassigned) [Example 151b], for which the EC50 is over 25 µM.

In the case of `OC1c2c(F)cnn2CCC1C1c2ccccc2-c2cncn21` (single isomer, unassigned) [Example 151c], the EC50 is over 25 µM.

Regarding `O[C@@H]1c2c(F)cnn2CC[C@H]1[C@H]1c2ccccc2-c2cncn21` (single isomer, unassigned) [Example 151d], the EC50 is 0.13 µM.

For the molecule `OC(c1ccncc1)C1c2ccccc2-c2cncn21` (single isomer, unassigned) [Example 152a], the EC50 stood at 14 µM.

Turning to `OC(c1ccncc1)C1c2ccccc2-c2cncn21` (single isomer, unassigned) [Example 152b], the EC50 was over 25 µM.

With `OC(c1ccncc1)C1c2ccccc2-c2cncn21` (single isomer, unassigned) [Example 152c], the EC50 is over 25 µM.

As for `OC(c1ccncc1)C1c2ccccc2-c2cncn21` (single isomer, unassigned) [Example 152d], the EC50 is over 25 µM.

Turning to `N#CC1(C(O)C2c3ccccc3-c3cncn32)CC1` (single isomer, unassigned) [Example 153a], the EC50 was determined as 0.62 µM.

As to `N#CC1(C(O)C2c3ccccc3-c3cncn32)CC1` (single isomer, unassigned) [Example 153b], the EC50 came out at 11 µM.

Regarding `OC(C1c2ccccc2-c2cncn21)C1(F)CC1` (single isomer, unassigned) [Example 154a], the EC50 was found to be 0.13 µM.

`OC(C1c2ccccc2-c2cncn21)C1(F)CC1` (single isomer, unassigned) [Example 154b]: the 50% effective concentration (EC50) was over 25 µM.

As to `OC(C1c2ccccc2-c2cncn21)C1(F)CC1` (single isomer, unassigned) [Example 154c], the EC50 was 5.4 µM.

In the case of `OC(C1c2ccccc2-c2cncn21)C1(F)CC1` (single isomer, unassigned) [Example 154d], the EC50 was 13 µM.

For `CC(C)(C(N)=O)C(O)C1c2ccccc2-c2cncn21` (single isomer, unassigned) [Example 155b], the EC50 is over 25 µM.

Take `CC(C)(C(N)=O)C(O)C1c2ccccc2-c2cncn21` (single isomer, unassigned) [Example 155c]: the EC50 was 21 µM.

In the case of `CC(C)(C(N)=O)C(O)C1c2ccccc2-c2cncn21` (single isomer, unassigned) [Example 155d], the EC50 is over 25 µM.

In the case of `N#Cc1cnn2c1C(O)C(C1c3ccccc3-c3cncn31)CC2` (single isomer, unassigned) [Example 156a], the EC50 is over 25 µM.

In the case of `N#Cc1cnn2c1C(O)C(C1c3ccccc3-c3cncn31)CC2` (single isomer, unassigned) [Example 156b], the EC50 is 0.24 µM.

As for `N#Cc1cnn2c1[C@@H](O)[C@@H]([C@H]1c3ccccc3-c3cncn31)CC2` (single isomer, unassigned) [Example 156c], the EC50 is 19 µM.

Regarding `N#Cc1cnn2c1[C@@H](O)[C@@H]([C@H]1c3ccccc3-c3cncn31)CC2` (single isomer, unassigned) [Example 156d], the EC50 was over 25 µM.

Regarding `N#Cc1cnn2c1C(O)C(C1c3ccccc3-c3cncn31)CC2` (single isomer, unassigned) [Example 156e], the EC50 came out at 0.25 µM.

For `N#Cc1cnn2c1[C@@H](O)[C@H]([C@H]1c3ccccc3-c3cncn31)CC2` (single isomer, unassigned) [Example 156f], the EC50 was over 25 µM.

For the molecule `OC1c2[nH]ncc2CCC1C1c2ccccc2-c2cncn21` (single isomer, unassigned) [Example 157a], the EC50 amounted to 0.37 µM.

With `O[C@@H]1c2[nH]ncc2CC[C@H]1[C@@H]1c2ccccc2-c2cncn21` (single isomer, unassigned) [Example 157b], the EC50 was determined as 22 µM.

With `OC1c2[nH]ncc2CCC1C1c2ccccc2-c2cncn21` (single isomer, unassigned) [Example 157c], the EC50 stood at 14 µM.

Regarding `OC1c2[nH]ncc2CCC1C1c2ccccc2-c2cncn21` (single isomer, unassigned) [Example 157e], the EC50 came out at 0.096 µM.

Regarding `OC1c2[nH]ncc2CCC1C1c2ccccc2-c2cncn21` (single isomer, unassigned) [Example 157f], the EC50 is over 25 µM.

`OC1c2[nH]ncc2CCC1C1c2ccccc2-c2cncn21` (single isomer, unassigned) [Example 157h]: the EC50 was 0.76 µM.

As to `Cc1cnn2c1C(O)C(C1c3ccccc3-c3cncn31)CC2` (single isomer, unassigned) [Example 159a], the EC50 was 0.27 µM.

Take `Cc1cnn2c1C(O)C(C1c3ccccc3-c3cncn31)CC2` (single isomer, unassigned) [Example 159b]: the EC50 came out at 14 µM.

Regarding `Cc1cnn2c1C(O)C(C1c3ccccc3-c3cncn31)CC2` (single isomer, unassigned) [Example 159c], the EC50 was 0.25 µM.

On to `Cc1cnn2c1C(O)C(C1c3ccccc3-c3cncn31)CC2` (single isomer, unassigned) [Example 159d], for which the EC50 was determined as 3.7 µM.

For `O[C@@H]1c2c(Cl)cnn2CC[C@@H]1[C@H]1c2ccccc2-c2cncn21` (single isomer, unassigned) [Example 160c], the concentration for a half-maximal effect (EC50) was 23 µM.

Consider `O[C@@H]1c2c(Cl)cnn2CC[C@@H]1[C@H]1c2ccccc2-c2cncn21` (single isomer, unassigned) [Example 160d], for which the EC50 turned out to be 6 µM.

Take `Nc1cc2n(n1)CCC(C1c3ccccc3-c3cncn31)C2O` (single isomer, unassigned) [Example 161c]: the EC50 turned out to be 1 µM.

For `Nc1cc2n(n1)CCC(C1c3ccccc3-c3cncn31)C2O` (single isomer, unassigned) [Example 161e], the EC50 is over 25 µM.

For `Nc1cc2n(n1)CCC(C1c3ccccc3-c3cncn31)C2O` (single isomer, unassigned) [Example 161g], the EC50 is over 25 µM.

Consider `Nc1cc2n(n1)CCC(C1c3ccccc3-c3cncn31)C2O` (single isomer, unassigned) [Example 161h], for which the EC50 was determined as 18 µM.

For the molecule `OC1c2nonc2CCC1C1c2ccccc2-c2cncn21` (single isomer, unassigned) [Example 163a], the EC50 amounted to 0.1 µM.

Consider `OC1c2nonc2CCC1C1c2ccccc2-c2cncn21` (single isomer, unassigned) [Example 163b], for which the EC50 was 0.06 µM.

For the molecule `OC1c2nonc2CCC1C1c2ccccc2-c2cncn21` (single isomer, unassigned) [Example 163c], the EC50 turned out to be 15 µM.

As for `OC1c2nonc2CCC1C1c2ccccc2-c2cncn21` (single isomer, unassigned) [Example 163d], the EC50 came out at 0.054 µM.

For `OC1c2nonc2CCC1C1c2ccccc2-c2cncn21` (single isomer, unassigned) [Example 163e], the EC50 turned out to be 6.1 µM.

For the molecule `OC1c2nonc2CCC1C1c2ccccc2-c2cncn21` (single isomer, unassigned) [Example 163f], the EC50 was over 25 µM.

Regarding `OC1c2nonc2CCC1C1c2ccccc2-c2cncn21` (single isomer, unassigned) [Example 163g], the EC50 amounted to 0.44 µM.

Turning to `OC1c2nonc2CCC1C1c2ccccc2-c2cncn21` (single isomer, unassigned) [Example 163h], the EC50 stood at 0.93 µM.

`CC1(C)CCCCC1(O)C1c2ccccc2-c2cncn21` (single isomer, unassigned) [Example 164a]: the EC50 was determined as 0.04 µM.

With `CC1(C)CCCCC1(O)C1c2ccccc2-c2cncn21` (single isomer, unassigned) [Example 164b], the EC50 worked out at 7.5 µM.

Consider `NC(=O)C1(C(O)C2c3ccccc3-c3cncn32)CC1` (single isomer, unassigned) [Example 165c], for which the EC50 was 11 µM.

In the case of `Cc1cc2n(n1)CCC(C1c3ccccc3-c3cncn31)C2O` (single isomer, unassigned) [Example 166a], the EC50 was over 25 µM.
